From PubChem BioAssay AID2060512 (Molecular Pharmacology Branch, DTP, NCI, 2025)
One block for each molecule: values may come before it.

Test system: 186277-243-T-J2-PDC complex spheroid viability
Assay: Anticancer human tumor 186277-243-T-J2-PDC patient-derived colon adenocarcinoma cell line growth inhibition [GQUAD]
Details: for IC50: curve of first compound; for viability, T/C: stronger effect = lower value
In short: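 Viability of tumor cells grown as complex spheroids with endothelial and stromal cells, exposed to drug combinations. Top concentration at or near clinical Cmax (else 10 microM), diluted in half-log increments.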

[1] = second compound 0.0316 µM, first compound 0.0316 µM
[2] = second compound 0.0316 µM, first compound 0.1 µM
[3] = second compound 0.0316 µM, first compound 0.316 µM
[4] = second compound 0.0316 µM, first compound 1 µM
[5] = second compound 0.0316 µM, first compound 3.16 µM
[6] = second compound 0.0316 µM, first compound 10 µM
[7] = second compound 0.1 µM, first compound 0.0316 µM
[8] = second compound 0.1 µM, first compound 0.1 µM
[9] = second compound 0.1 µM, first compound 0.316 µM
[10] = second compound 0.1 µM, first compound 1 µM
[11] = second compound 0.1 µM, first compound 3.16 µM
[12] = second compound 0.1 µM, first compound 10 µM
[13] = second compound 0.316 µM, first compound 0.0316 µM
[14] = second compound 0.316 µM, first compound 0.1 µM
[15] = second compound 0.316 µM, first compound 0.316 µM
[16] = second compound 0.316 µM, first compound 1 µM
[17] = second compound 0.316 µM, first compound 3.16 µM
[18] = second compound 0.316 µM, first compound 10 µM
[19] = second compound 1 µM, first compound 0.0316 µM
[20] = second compound 1 µM, first compound 0.1 µM
[21] = second compound 1 µM, first compound 0.316 µM
[22] = second compound 1 µM, first compound 1 µM
[23] = second compound 1 µM, first compound 3.16 µM
[24] = second compound 1 µM, first compound 10 µM
[25] = second compound 3.16 µM, first compound 0.0316 µM
[26] = second compound 3.16 µM, first compound 0.1 µM
[27] = second compound 3.16 µM, first compound 0.316 µM
[28] = second compound 3.16 µM, first compound 1 µM
[29] = second compound 3.16 µM, first compound 3.16 µM
[30] = second compound 3.16 µM, first compound 10 µM
[31] = second compound 10 µM, first compound 0.0316 µM
[32] = second compound 10 µM, first compound 0.1 µM
[33] = second compound 10 µM, first compound 0.316 µM
[34] = second compound 10 µM, first compound 1 µM
[35] = second compound 10 µM, first compound 3.16 µM
[36] = second compound 10 µM, first compound 10 µM
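Throughout, for viability, T/C: 100% = DMSO vehicle control viability.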

Structure (SMILES): Nc1ccn(C2OC(CO)C(O)C2(F)F)c(=O)n1 (stereo not drawn) + Cc1[nH]c2ccc(F)cc2c1-c1nc2c3cccnc3c3ncccc3c2[nH]1
IC50 (second compound 0.0316 µM): < 0.0316 µM | IC50 (second compound 0.1 µM): < 0.0316 µM | IC50 (second compound 0.316 µM): < 0.0316 µM | IC50 (second compound 1 µM): < 0.0316 µM | IC50 (second compound 3.16 µM): < 0.0316 µM | IC50 (second compound 10 µM): < 0.0316 µM | viability, T/C [1]: 21.6% | viability, T/C [2]: 11.7% | viability, T/C [3]: 11.9% | viability, T/C [4]: 10.3% | viability, T/C [5]: 11.4% | viability, T/C [6]: 11.4% | viability, T/C [7]: 22.8% | viability, T/C [8]: 11.5% | viability, T/C [9]: 11.6% | viability, T/C [10]: 9.19% | viability, T/C [11]: 12.4% | viability, T/C [12]: 11.5% | viability, T/C [13]: 23.7% | viability, T/C [14]: 10.1% | viability, T/C [15]: 11.9% | viability, T/C [16]: 10.4% | viability, T/C [17]: 12.4% | viability, T/C [18]: 11.6% | viability, T/C [19]: 18.9% | viability, T/C [20]: 10.6% | viability, T/C [21]: 11.8% | viability, T/C [22]: 10.4% | viability, T/C [23]: 11.7% | viability, T/C [24]: 12.1% | viability, T/C [25]: 23.4% | viability, T/C [26]: 15.5% | viability, T/C [27]: 11.9% | viability, T/C [28]: 11.3% | viability, T/C [29]: 9.87% | viability, T/C [30]: 12.2% | viability, T/C [31]: 20.2% | viability, T/C [32]: 8.63% | viability, T/C [33]: 9.73% | viability, T/C [34]: 9.38% | viability, T/C [35]: 11.6% | viability, T/C [36]: 12.2%

IC50 (second compound 0.0316 µM): 0.0587 µM | IC50 (second compound 0.1 µM): < 0.0316 µM | IC50 (second compound 0.316 µM): < 0.0316 µM | IC50 (second compound 1 µM): < 0.0316 µM | IC50 (second compound 3.16 µM): < 0.0316 µM | IC50 (second compound 10 µM): < 0.0316 µM
Structure (SMILES): C#Cc1c(F)ccc2cc(O)cc(-c3ncc4c(N5CC6CCC(C5)N6)nc(OCC56CCCN5CC(F)C6)nc4c3F)c12 (stereo not drawn) + Cc1cnc(CNC(=O)c2c(=O)c3ccc(N4CCCN(C)CC4)nc3n3c2sc2ccccc23)cn1
viability, T/C [1]: 75.4% | viability, T/C [2]: 26.8% | viability, T/C [3]: 19.9% | viability, T/C [4]: 8.12% | viability, T/C [5]: 13.9% | viability, T/C [6]: 11.4% | viability, T/C [7]: 40% | viability, T/C [8]: 18.8% | viability, T/C [9]: 9.79% | viability, T/C [10]: 7.98% | viability, T/C [11]: 9.12% | viability, T/C [12]: 5.32% | viability, T/C [13]: 23.8% | viability, T/C [14]: 14.6% | viability, T/C [15]: 8.91% | viability, T/C [16]: 5.69% | viability, T/C [17]: 5.84% | viability, T/C [18]: 4.29% | viability, T/C [19]: 18.2% | viability, T/C [20]: 9.62% | viability, T/C [21]: 6.74% | viability, T/C [22]: 5.02% | viability, T/C [23]: 5.11% | viability, T/C [24]: 3.11% | viability, T/C [25]: 17.2% | viability, T/C [26]: 12.5% | viability, T/C [27]: 5.45% | viability, T/C [28]: 4.44% | viability, T/C [29]: 4.72% | viability, T/C [30]: 2.99% | viability, T/C [31]: 14.2% | viability, T/C [32]: 9.54% | viability, T/C [33]: 4.98% | viability, T/C [34]: 0.27% | viability, T/C [35]: 2.03% | viability, T/C [36]: 0.19%

Structure (SMILES): COc1ccc([C@@H](O)c2cc(-c3ncnc4cc(N5CCOCC5)ccc34)c(F)cc2Cl)nn1 + Cc1[nH]c2ccc(F)cc2c1-c1nc2c3cccnc3c3ncccc3c2[nH]1
IC50 (second compound 0.0316 µM): 4.92 µM | IC50 (second compound 0.1 µM): 6.89 µM | IC50 (second compound 0.316 µM): 6.47 µM | IC50 (second compound 1 µM): 5.92 µM | IC50 (second compound 3.16 µM): 4.99 µM | IC50 (second compound 10 µM): 5.74 µM | viability, T/C [1]: 95.7% | viability, T/C [2]: 101% | viability, T/C [3]: 97.2% | viability, T/C [4]: 80.9% | viability, T/C [5]: 66.3% | viability, T/C [6]: 25.9% | viability, T/C [7]: 94.5% | viability, T/C [8]: 89.9% | viability, T/C [9]: 104% | viability, T/C [10]: 99.5% | viability, T/C [11]: 85.2% | viability, T/C [12]: 33.1% | viability, T/C [13]: 105% | viability, T/C [14]: 94.8% | viability, T/C [15]: 103% | viability, T/C [16]: 106% | viability, T/C [17]: 81.5% | viability, T/C [18]: 30.9% | viability, T/C [19]: 89.2% | viability, T/C [20]: 90% | viability, T/C [21]: 115% | viability, T/C [22]: 102% | viability, T/C [23]: 71.2% | viability, T/C [24]: 32.4% | viability, T/C [25]: 93.4% | viability, T/C [26]: 92.7% | viability, T/C [27]: 112% | viability, T/C [28]: 85.3% | viability, T/C [29]: 68.6% | viability, T/C [30]: 23.2% | viability, T/C [31]: 93.4% | viability, T/C [32]: 91.4% | viability, T/C [33]: 114% | viability, T/C [34]: 88.8% | viability, T/C [35]: 66.7% | viability, T/C [36]: 34.9%

Structure (SMILES): O=C(c1cc(Cc2n[nH]c(=O)c3ccccc23)ccc1F)N1CCN(C(=O)C2CC2)CC1 + Cc1[nH]c2ccc(F)cc2c1-c1nc2c3cccnc3c3ncccc3c2[nH]1
IC50 (second compound 0.0316 µM): > 10 µM | IC50 (second compound 0.1 µM): > 10 µM | IC50 (second compound 0.316 µM): > 10 µM | IC50 (second compound 1 µM): > 10 µM | IC50 (second compound 3.16 µM): > 10 µM | IC50 (second compound 10 µM): > 10 µM | viability, T/C [1]: 110% | viability, T/C [2]: 91.6% | viability, T/C [3]: 103% | viability, T/C [4]: 90.9% | viability, T/C [5]: 98.8% | viability, T/C [6]: 54.9% | viability, T/C [7]: 93.2% | viability, T/C [8]: 106% | viability, T/C [9]: 97% | viability, T/C [10]: 100% | viability, T/C [11]: 82.3% | viability, T/C [12]: 66.2% | viability, T/C [13]: 98.1% | viability, T/C [14]: 94.5% | viability, T/C [15]: 91.3% | viability, T/C [16]: 92.6% | viability, T/C [17]: 89.9% | viability, T/C [18]: 53.8% | viability, T/C [19]: 79.3% | viability, T/C [20]: 99.4% | viability, T/C [21]: 97.4% | viability, T/C [22]: 86% | viability, T/C [23]: 89.2% | viability, T/C [24]: 62.1% | viability, T/C [25]: 99% | viability, T/C [26]: 101% | viability, T/C [27]: 113% | viability, T/C [28]: 105% | viability, T/C [29]: 93.1% | viability, T/C [30]: 68.3% | viability, T/C [31]: 89% | viability, T/C [32]: 102% | viability, T/C [33]: 114% | viability, T/C [34]: 87.6% | viability, T/C [35]: 86.5% | viability, T/C [36]: 59.2%
